Measured values: US8134007B2, “Pyridine derivatives” (Pfizer Inc., priority 2007, dated 2012)

How the values were obtained:
Assay type in all cases: cell-based
Human Nav1.8 = biological target: T1, Human Nav1.8 (Homo sapiens, UniProt Q9Y5Y9); assay: VIPR Assay for Nav1.8 Compounds (FRET membrane potential, deltamethrin opener); conditions: VIPR FRET membrane potential assay, deltamethrin opener; average of replicates; read-out: Nav1.8 IC50
T1 construct: expressed in transfected cells; host or cells: HEK293
T1 sequence (Q9Y5Y9 whole entry): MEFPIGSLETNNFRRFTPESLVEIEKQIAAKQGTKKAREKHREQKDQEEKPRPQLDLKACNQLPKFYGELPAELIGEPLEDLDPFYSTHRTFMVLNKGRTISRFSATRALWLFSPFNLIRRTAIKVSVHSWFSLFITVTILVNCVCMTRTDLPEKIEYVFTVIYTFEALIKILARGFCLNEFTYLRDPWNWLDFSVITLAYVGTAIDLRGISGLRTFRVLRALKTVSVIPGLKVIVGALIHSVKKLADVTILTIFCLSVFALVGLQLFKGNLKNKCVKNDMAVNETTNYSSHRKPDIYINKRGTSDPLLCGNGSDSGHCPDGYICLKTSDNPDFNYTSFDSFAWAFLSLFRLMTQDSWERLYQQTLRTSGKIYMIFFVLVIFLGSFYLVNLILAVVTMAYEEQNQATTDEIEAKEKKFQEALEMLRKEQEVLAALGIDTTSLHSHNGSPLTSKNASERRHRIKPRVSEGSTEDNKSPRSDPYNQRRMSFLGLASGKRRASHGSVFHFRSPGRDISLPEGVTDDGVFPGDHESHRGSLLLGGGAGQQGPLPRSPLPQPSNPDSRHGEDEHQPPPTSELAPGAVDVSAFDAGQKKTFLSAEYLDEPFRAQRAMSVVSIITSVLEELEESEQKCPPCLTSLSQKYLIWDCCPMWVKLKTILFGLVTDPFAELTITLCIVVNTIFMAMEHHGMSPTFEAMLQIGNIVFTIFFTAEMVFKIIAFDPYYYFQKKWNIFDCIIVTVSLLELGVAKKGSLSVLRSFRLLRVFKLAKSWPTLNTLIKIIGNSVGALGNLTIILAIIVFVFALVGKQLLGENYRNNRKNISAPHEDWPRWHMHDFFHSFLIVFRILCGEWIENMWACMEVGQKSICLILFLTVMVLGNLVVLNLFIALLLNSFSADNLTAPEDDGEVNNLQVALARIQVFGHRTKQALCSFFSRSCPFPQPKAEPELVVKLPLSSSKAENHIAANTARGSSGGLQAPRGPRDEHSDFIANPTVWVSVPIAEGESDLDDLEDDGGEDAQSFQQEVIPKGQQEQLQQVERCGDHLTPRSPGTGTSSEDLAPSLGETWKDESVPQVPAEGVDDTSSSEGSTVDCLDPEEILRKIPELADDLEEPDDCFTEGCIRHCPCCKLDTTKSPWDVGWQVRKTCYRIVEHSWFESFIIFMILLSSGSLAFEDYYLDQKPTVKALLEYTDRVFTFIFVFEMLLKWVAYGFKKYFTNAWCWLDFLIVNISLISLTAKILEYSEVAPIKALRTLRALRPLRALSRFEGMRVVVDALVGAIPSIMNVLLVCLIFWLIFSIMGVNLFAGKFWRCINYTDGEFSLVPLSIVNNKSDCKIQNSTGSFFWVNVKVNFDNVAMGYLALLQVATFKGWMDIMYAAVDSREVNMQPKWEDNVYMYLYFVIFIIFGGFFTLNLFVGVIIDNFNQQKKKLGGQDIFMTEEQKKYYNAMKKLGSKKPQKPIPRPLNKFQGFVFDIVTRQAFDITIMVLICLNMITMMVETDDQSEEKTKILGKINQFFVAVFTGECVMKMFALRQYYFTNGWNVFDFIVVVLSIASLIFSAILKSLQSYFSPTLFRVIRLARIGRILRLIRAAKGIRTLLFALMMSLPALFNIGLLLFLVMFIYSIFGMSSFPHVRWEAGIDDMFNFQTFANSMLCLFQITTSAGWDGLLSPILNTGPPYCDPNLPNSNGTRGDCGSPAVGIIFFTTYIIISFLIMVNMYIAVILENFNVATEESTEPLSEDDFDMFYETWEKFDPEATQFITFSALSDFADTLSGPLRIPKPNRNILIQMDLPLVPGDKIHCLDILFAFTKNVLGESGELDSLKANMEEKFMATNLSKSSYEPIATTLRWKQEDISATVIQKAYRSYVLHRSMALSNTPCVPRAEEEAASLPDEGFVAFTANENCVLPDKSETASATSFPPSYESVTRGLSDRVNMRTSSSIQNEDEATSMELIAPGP

[1] = test system: tetrodotoxin-sensitive voltage-gated sodium channels including NaV1.2, NaV1.3 and NaV1.7; assay: TTX-S Assay (VIPR, SHSY-5Y cell line, veratridine opener); conditions: read-out: TTX-S IC50, veratridine 50 μM opener, average of replicates
Human Nav1.5 = biological target: T2, Human Nav1.5 (Homo sapiens, UniProt Q14524); assay: Nav1.5 Assay (VIPR, HEK293 cells); conditions: HEK293 cells expressing Human Nav1.5; average of replicates; read-out: Nav1.5 IC50
T2 construct: expressed in transfected cells; host or cells: HEK293
T2 sequence (Q14524 whole entry): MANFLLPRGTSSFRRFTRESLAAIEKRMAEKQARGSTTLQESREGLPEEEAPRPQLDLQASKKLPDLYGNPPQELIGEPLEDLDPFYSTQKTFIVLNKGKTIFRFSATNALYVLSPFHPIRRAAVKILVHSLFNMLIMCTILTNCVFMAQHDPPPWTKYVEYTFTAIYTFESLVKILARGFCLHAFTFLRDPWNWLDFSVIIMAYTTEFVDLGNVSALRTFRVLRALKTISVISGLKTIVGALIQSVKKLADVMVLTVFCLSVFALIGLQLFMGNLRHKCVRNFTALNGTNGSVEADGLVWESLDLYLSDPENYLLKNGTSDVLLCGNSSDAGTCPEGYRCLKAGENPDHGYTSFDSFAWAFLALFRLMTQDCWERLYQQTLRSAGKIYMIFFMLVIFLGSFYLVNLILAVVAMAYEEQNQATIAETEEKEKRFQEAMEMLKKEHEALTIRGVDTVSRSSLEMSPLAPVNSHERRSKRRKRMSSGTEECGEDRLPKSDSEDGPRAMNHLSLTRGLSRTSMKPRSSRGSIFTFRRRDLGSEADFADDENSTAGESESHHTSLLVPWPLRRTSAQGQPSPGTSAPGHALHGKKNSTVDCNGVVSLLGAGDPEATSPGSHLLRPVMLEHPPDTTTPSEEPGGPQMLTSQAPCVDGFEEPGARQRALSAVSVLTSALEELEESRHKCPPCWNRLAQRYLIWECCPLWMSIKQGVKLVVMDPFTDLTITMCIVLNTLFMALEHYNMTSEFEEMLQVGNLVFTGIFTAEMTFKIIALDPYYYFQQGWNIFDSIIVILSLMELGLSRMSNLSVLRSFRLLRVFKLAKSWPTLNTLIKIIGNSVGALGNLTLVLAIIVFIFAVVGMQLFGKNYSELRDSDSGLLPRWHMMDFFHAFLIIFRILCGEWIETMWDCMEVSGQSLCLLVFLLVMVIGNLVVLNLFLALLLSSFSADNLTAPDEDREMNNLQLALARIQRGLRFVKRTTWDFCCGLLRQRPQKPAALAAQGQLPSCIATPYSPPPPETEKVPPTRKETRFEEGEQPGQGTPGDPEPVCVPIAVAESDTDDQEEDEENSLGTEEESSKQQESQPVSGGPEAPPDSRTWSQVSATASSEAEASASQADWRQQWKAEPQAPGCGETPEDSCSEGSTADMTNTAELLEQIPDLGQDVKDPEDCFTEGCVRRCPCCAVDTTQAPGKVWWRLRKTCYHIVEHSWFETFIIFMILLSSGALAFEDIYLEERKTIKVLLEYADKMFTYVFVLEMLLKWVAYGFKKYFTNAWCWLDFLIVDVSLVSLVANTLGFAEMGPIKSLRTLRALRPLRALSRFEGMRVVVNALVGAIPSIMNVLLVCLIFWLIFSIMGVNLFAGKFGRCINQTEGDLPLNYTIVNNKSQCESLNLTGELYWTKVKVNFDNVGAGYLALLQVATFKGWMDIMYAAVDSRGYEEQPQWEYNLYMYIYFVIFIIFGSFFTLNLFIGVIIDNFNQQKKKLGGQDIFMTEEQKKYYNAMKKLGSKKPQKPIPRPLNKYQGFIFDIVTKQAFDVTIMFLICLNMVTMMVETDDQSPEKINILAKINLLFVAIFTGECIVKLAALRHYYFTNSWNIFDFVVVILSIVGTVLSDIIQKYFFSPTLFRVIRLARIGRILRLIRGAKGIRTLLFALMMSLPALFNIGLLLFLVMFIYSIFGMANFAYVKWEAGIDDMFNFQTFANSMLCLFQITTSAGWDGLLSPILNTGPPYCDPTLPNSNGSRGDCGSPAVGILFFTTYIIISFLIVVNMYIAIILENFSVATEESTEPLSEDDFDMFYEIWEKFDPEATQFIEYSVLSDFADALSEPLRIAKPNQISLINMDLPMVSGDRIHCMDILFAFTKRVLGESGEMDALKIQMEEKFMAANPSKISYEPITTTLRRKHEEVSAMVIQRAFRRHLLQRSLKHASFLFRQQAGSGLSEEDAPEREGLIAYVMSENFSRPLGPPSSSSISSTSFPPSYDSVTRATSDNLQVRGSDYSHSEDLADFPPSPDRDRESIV
Method: The Nav1.5 assay is performed in HEK293 cells expressing Human Nav1.5 in the same way as the Nav1.8 assay.
Where replicate experiments were conducted resulting in multiple sets of data for a test compound, the data presented represent the average value from all replicate experiments.

Compound	IC50 (Human Nav1.8)	IC50 [1]	IC50 (Human Nav1.5)
CCn1nccc1C(=O)Nc1ccc(-c2cc(Cl)cc(OC)c2Cl)c(N)n1 [Example 62, N-[6-Amino-5-(2,5-dichloro-3-methoxyphenyl)pyridin-2-yl]-1-ethyl-1H-pyrazole-5-carboxamide]	5.1 µM	11 µM	17 µM
CCn1nccc1C(=O)Nc1ccc(-c2cc(Cl)ccc2OC(F)(F)F)c(N)n1 [Example 63, N-{6-Amino-5-[5-chloro-2-(trifluoromethoxy)phenyl]pyridin-2-yl}-1-ethyl-1H-pyrazole-5-carboxamide]	4.3 µM	4.4 µM	16 µM
CCn1nccc1C(=O)Nc1ccc(-c2cc(OC(F)(F)F)ccc2F)c(N)n1 [Example 64, N-{6-Amino-5-[2-fluoro-5-(trifluoromethoxy)phenyl]pyridin-2-yl}-1-ethyl-1H-pyrazole-5-carboxamide]	5 µM	3.7 µM	14 µM
CCn1nccc1C(=O)Nc1ccc(-c2cc(OC(F)(F)F)ccc2Cl)c(N)n1 [Example 65, N-{6-Amino-5-[2-chloro-5-(trifluoromethoxy)phenyl]pyridin-2-yl}-1-ethyl-1H-pyrazole-5-carboxamide]	5.3 µM	3.2 µM	12 µM
CC(C)n1nccc1C(=O)Nc1ccc(-c2cc(F)ccc2Cl)c(N)n1 [Example 67, N-[6-Amino-5-(2-chloro-5-fluorophenyl)pyridin-2-yl]-1-isopropyl-1H-pyrazole-5-carboxamide]	5 µM	22 µM	31 µM
CC(C)n1nccc1C(=O)Nc1ccc(-c2ccccc2OC(F)(F)F)c(N)n1 [Example 68, N-{6-Amino-5-[2-(trifluoromethoxy)phenyl]pyridin-2-yl}-1-isopropyl-1H-pyrazole-5-carboxamide]	3.9 µM	5 µM	17 µM
CC(C)n1nccc1C(=O)Nc1ccc(-c2cc(OC(F)(F)F)ccc2Cl)c(N)n1 [Example 69, N-{6-Amino-5-[2-chloro-5-(trifluoromethoxy)phenyl]pyridin-2-yl}-1-isopropyl-1H-pyrazole-5-carboxamide]	16 µM	3.6 µM	16 µM
Cn1ccc(C(=O)Nc2ccc(-c3cc(Cl)cc(Cl)c3Cl)c(N)n2)n1 [Example 70, N-[6-Amino-5-(2,3,5-trichlorophenyl)pyridin-2-yl]-1-methyl-1H-pyrazole-3-carboxamide]	11 µM	14 µM	28 µM
Nc1nc(NC(=O)c2cnon2)ccc1-c1cc(Cl)ccc1Cl [Example 71, N-[6-Amino-5-(2,5-dichlorophenyl)pyridin-2-yl]-1,2,5-oxadiazole-3-carboxamide]	> 32 µM	> 32 µM	> 32 µM
COc1ccc(Cl)c(-c2ccc(NC(=O)c3ccon3)nc2N)c1 [Example 73, N-[6-Amino-5-(2-chloro-5-methoxyphenyl)pyridin-2-yl]isoxazole-3-carboxamide]	4.7 µM	18 µM	> 32 µM
Nc1nc(NC(=O)c2ccno2)ccc1-c1cc(Cl)cc(Cl)c1Cl [Example 78, N-[6-Amino-5-(2,3,5-trichlorophenyl)pyridin-2-yl]isoxazole-5-carboxamide]	1.4 µM	8.3 µM	14 µM
Cn1nncc1C(=O)Nc1ccc(-c2cc(Cl)ccc2Cl)c(N)n1 [Example 80, N-[6-Amino-5-(2,5-dichlorophenyl)pyridin-2-yl]-1-methyl-1H-1,2,3-triazole-5-carboxamide]	3.4 µM	15 µM	15 µM
COc1cc(Cl)c(Cl)c(-c2ccc(NC(=O)c3cnnn3C)nc2N)c1 [Example 81, N-[6-Amino-5-(2,3-dichloro-5-methoxyphenyl)pyridin-2-yl]-1-methyl-1H-1,2,3-triazole-5-carboxamide]	1.1 µM	7.5 µM	2.9 µM
Cn1nncc1C(=O)Nc1ccc(-c2ccccc2Cl)c(N)n1 [Example 82, N-[6-Amino-5-(2-chlorophenyl)pyridin-2-yl]-1-methyl-1H-1,2,3-triazole-5-carboxamide]	9.3 µM	> 32 µM	> 32 µM
COc1ccc(Cl)c(-c2ccc(NC(=O)c3cnnn3C)nc2N)c1 [Example 83, N-[6-Amino-5-(2-chloro-5-methoxyphenyl)pyridin-2-yl]-1-methyl-1H-1,2,3-triazole-5-carboxamide]	3.3 µM	12 µM	4.1 µM
Cn1nncc1C(=O)Nc1ccc(-c2cc(Cl)cc(Cl)c2Cl)c(N)n1 [Example 84, N-[6-Amino-5-(2,3,5-trichlorophenyl)pyridin-2-yl]-1-methyl-1H-1,2,3-triazole-5-carboxamide]	2.4 µM	6.5 µM	5.3 µM
Cn1nncc1C(=O)Nc1ccc(-c2ccccc2OC(F)(F)F)c(N)n1 [Example 85, N-{6-Amino-5-[2-(trifluoromethoxy)phenyl]pyridin-2-yl}-1-methyl-1H-1,2,3-triazole-5-carboxamide]	7 µM	28 µM	31 µM
Cn1nncc1C(=O)Nc1ccc(-c2cc(F)ccc2Cl)c(N)n1 [Example 86, N-[6-Amino-5-(2-chloro-5-fluorophenyl)pyridin-2-yl]-1-methyl-1H-1,2,3-triazole-5-carboxamide]	5.3 µM	19 µM	7.5 µM
COc1cc(Cl)cc(-c2ccc(NC(=O)c3cnnn3C)nc2N)c1Cl [Example 87, N-[6-Amino-5-(2,5-dichloro-3-methoxyphenyl)pyridin-2-yl]-1-methyl-1H-1,2,3-triazole-5-carboxamide]	6.1 µM	15 µM	9.9 µM
